The target in assay [1] is menin protein (Homo sapiens (Human), UniProt O00255). The experiment in a line: biochemical. It counts as binding. The following applies: FP competitive binding; menin protein 4 nM, FAM-MM2 probe 2 nM; read-out: Menin Binding Affinity IC50. In outline:
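Competitive fluorescence polarization assay using FAM-labelled MLL1 peptide probe FAM-MM2 (2 nM final) preincubated with menin (4 nM final) in PBS with 0.02% bovine γ-globulin, 4% DMSO and 0.01% Triton X-100. Compounds were added and incubated 30 min at room temperature. IC50 came from nonlinear regression of competition curves, with Ki also derived.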

A short description of assay [2]: Cell growth inhibition, CellTiter-Glo Luminescent Cell Viability Assay. The assay is classed as cell-based. How it is done:
Cell growth inhibitory activity of representative menin inhibitors was determined using CellTiter-Glo® Luminescent Cell Viability Assay. Cells were seeded in 384-well white opaque cell culture plates at a density of 2,000 cells/well with serially diluted compounds and incubated at 37° C. in an atmosphere of 95% air and 5% CO2 for 4 days. Cell viability was determined using the CellTiter-Glo® Luminescent Cell Viability Assay Kit (Promega, Madison, Wis.) according to the manufacture's instruction. Briefly, a volume of CellTiter-Glo® Reagent equal to the volume of cell culture medium was added to each well, and then the plates were incubated at room temperature for 10-20 minutes. The luminescent signal was measured using a Tecan Infinite M1000 multimode microplate reader (Tecan, Morrisville, N.C.). The half maximal inhibitory concentration (IC50) was calculated using the GraphPad Prism 5 software (GraphPad Software, La Jolla, Calif.).

[3] abbreviates: MOLM-13, 96 h, read-out: Cell Growth Inhibition IC50 (μM) MOLM13, MOLM13 cells, 4 days, CellTiter-Glo.
[4] abbreviates: MV4-11, 96 h, read-out: Cell Growth Inhibition IC50 (μM) MV4, 11, MV4, 11 cells, 4 days, CellTiter-Glo.
Where [5] appears, read: MOLM-13, 96 h, MOLM13 cells, 4 days, CellTiter-Glo, read-out: Cell Growth Inhibition IC50 (μM) MOLM13.
Where [6] appears, read: MV4-11, 96 h, MV4, 11 cells, 4 days, CellTiter-Glo, read-out: Cell Growth Inhibition IC50 (μM) MV4, 11.

15 molecules from US10899738B2 (THE REGENTS OF THE UNIVERSITY OF MICHIGAN, priority 2016, dated 2021) can be followed below.

The structures appear in SMILES notation. Like-named read-outs stand apart in the source and are kept apart here.

Sequence of menin protein (O00255 whole entry): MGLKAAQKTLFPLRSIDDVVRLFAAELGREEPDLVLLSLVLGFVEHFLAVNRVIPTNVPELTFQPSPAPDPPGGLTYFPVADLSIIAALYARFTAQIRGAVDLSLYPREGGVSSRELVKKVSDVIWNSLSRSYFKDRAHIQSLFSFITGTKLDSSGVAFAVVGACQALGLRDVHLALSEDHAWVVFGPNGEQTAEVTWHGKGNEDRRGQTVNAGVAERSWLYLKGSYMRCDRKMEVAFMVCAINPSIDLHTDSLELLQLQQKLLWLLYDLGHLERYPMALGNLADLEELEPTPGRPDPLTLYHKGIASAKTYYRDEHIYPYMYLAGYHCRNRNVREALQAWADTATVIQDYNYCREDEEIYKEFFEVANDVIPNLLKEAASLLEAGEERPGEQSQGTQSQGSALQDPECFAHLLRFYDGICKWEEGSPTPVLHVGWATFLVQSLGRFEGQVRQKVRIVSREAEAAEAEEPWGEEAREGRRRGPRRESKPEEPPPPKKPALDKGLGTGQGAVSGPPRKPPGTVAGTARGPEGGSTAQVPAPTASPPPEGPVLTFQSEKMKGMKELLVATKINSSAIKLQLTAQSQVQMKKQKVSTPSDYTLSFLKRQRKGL

What is called IC50 is the concentration needed to halve the response being measured. Regarding `CNC(=O)N[C@H]1CCC[C@@H]1C(C#N)(c1ccccc1)C1CCN(CC2CN(c3ccc(S(=O)(=O)c4ccncc4)cc3)C2)CC1` (mixture of isomers) [compound 269, rac-1-((1S,2R)-2-(cyano(phenyl)(1-((1-(4-(pyridin-4-ylsulfonyl)phenyl)azetidin-3-yl)methyl)piperidin-4-yl)methyl)cyclopentyl)-3-methylurea], the IC50 was found to be 9 nM in assay [1], 1.73 µM in assay [2] (setting [3]) and 0.273 µM in assay [2] (setting [4]).
Take `CCN1Cc2ccccc2C(C2CCN(CC3CN(c4ccc(S(=O)(=O)c5ccccc5)cc4)C3)CC2)([C@H]2CCC[C@@H]2NC(=O)NC)C1` (mixture of isomers) [compound 290, rac-1-((1S,2R)-2-(2-ethyl-4-(1-((1-(4-(phenylsulfonyl)phenyl)azetidin-3-yl)methyl)piperidin-4-yl)-1,2,3,4-tetrahydroisoquinolin-4-yl)cyclopentyl)-3-methylurea]: the IC50 in assay [1] came out at 9 nM; in assay [2] (setting [3]) it was 0.32 µM; in assay [2] (setting [4]), 0.11 µM.
The corresponding values for `CNC(=O)N[C@H]1CCC[C@@H]1C1(C2CCN(CC3CN(c4ccc(S(=O)(=O)c5cnn(C)c5)cc4)C3)CC2)CN(C)Cc2ccccc21` (mixture of isomers) [compound 284, rac-1-methyl-3-((1S,2R)-2-(2-methyl-4-(1-((1-(4-((1-methyl-1H-pyrazol-4-yl)sulfonyl)phenyl)azetidin-3-yl)methyl)piperidin-4-yl)-1,2,3,4-tetrahydroisoquinolin-4-yl)cyclopentyl)urea] are 11 nM, more than 10 µM and 2.59 µM.
Regarding `CNC(=O)O[C@H]1CCC[C@@H]1C(Cn1ccnc1C)(c1ccccc1)C1CCN(CC2CN(c3ccc(C#N)cc3)C2)CC1` (mixture of isomers) [compound 406, rac-(1S,2R)-2-(1-(1-((1-(4-cyanophenyl)azetidin-3-yl)methyl)piperidin-4-yl)-2-(2-methyl-1H-imidazol-1-yl)-1-phenylethyl)cyclopentyl methylcarbamate], the figures for the IC50 in assay [1], in assay [2] (setting [3]) and in assay [2] (setting [4]) were 3 nM, 0.009 ± 0.0004 µM and 0.004 ± 0.002 µM, respectively.
`CC(=O)N[C@H]1CCC[C@@H]1C(C#N)(c1ccccc1)C1CCN(CC2CN(c3ccc(S(=O)(=O)C4CC4)cc3)C2)CC1` (mixture of isomers) [compound 281, rac-N-((1S,2R)-2-(cyano(1-((1-(4-(cyclopropylsulfonyl)phenyl)azetidin-3-yl)methyl)piperidin-4-yl)(phenyl)methyl)cyclopentyl) acetamide]: the IC50 in assay [1] amounted to 29 nM; in assay [2] (setting [3]) it was 2.35 µM; in assay [2] (setting [4]), 0.55 µM.
In the same order, the values of `CNC(=O)O[C@H]1CCC[C@@H]1C(C#N)(c1ccccc1)C1CCN(CC2CN(c3ccc(C(F)(F)F)cc3)C2)CC1` (mixture of isomers) [compound 367, rac-(1S,2R)-2-(cyano(phenyl)(1-((1-(4-(trifluoromethyl)phenyl)azetidin-3-yl)methyl)piperidin-4-yl)methyl)cyclopentyl methylcarbamate] are 30 nM, 2.96 µM and 1.66 µM.
For `CCN1Cc2ccccc2C(C2CCN(CC3CN(c4ccc(S(=O)(=O)c5cnn(C)c5)cc4)C3)CC2)([C@H]2CCC[C@@H]2NC(=O)NC)C1` (mixture of isomers) [Cpd. No. 291, rac-1-((1S,2R)-2-(2-ethyl-4-(1-((1-(4-((1-methyl-1H-pyrazol-4-yl)sulfonyl)phenyl)azetidin-3-yl)methyl)piperidin-4-yl)-1,2,3,4-tetrahydroisoquinolin-4-yl)cyclopentyl)-3-methylurea], the IC50 in assay [1] turned out to be 7 nM; in assay [2] (setting [3]), 0.71 µM; in assay [2] (setting [4]) it was 0.2 µM.
As to `COC(=O)N[C@H]1CCC[C@@H]1C(C#N)(c1ccccc1)C1CCN(CC2CN(c3ccc(S(=O)(=O)c4ccncc4)cc3)C2)CC1` (mixture of isomers) [Cpd. No. 345, methyl (rac-(1S,2R)-2-(cyano(phenyl)(1-((1-(4-(pyridin-4-ylsulfonyl)phenyl)azetidin-3-yl)methyl)piperidin-4-yl)methyl)cyclopentyl)carbamate], the figures for the 50% inhibitory concentration (IC50) in assay [1], in assay [2] (setting [3]) and in assay [2] (setting [4]) were 11 nM, 0.71 µM and 0.54 µM, respectively.
On to `CCN1Cc2ccccc2C(C2CCCC2)(C2CCN(CC3CN(c4ccc(S(=O)(=O)C5CC5)cc4)C3)C(C)C2)C1` (stereo not drawn) [compound 95, 4-cyclopentyl-4-(1-((1-(4-(cyclopropylsulfonyl)phenyl)azetidin-3-yl)methyl)-2-methylpiperidin-4-yl)-2-ethyl-1,2,3,4-tetrahydroisoquinoline], for which the IC50 turned out to be 24 nM in assay [1]; 1.9 µM in assay [2] (MOLM13 cells, 4 days, CellTiter-Glo, read-out: Cell Growth Inhibition IC50 (μM) MOLM13); 1.8 µM in assay [2] (MV4, 11 cells, 4 days, CellTiter-Glo, read-out: Cell Growth Inhibition IC50 (μM) MV4, 11).
As to `COC(=O)N[C@H]1CCC[C@@H]1C(C#N)(c1ccccc1)C1CCN(CC2(F)CN(c3ccc(S(=O)(=O)c4cnn(C)c4)cc3)C2)CC1` (mixture of isomers) [compound 397, methyl rac-((1S,2R)-2-(cyano(1-((3-fluoro-1-(4-((1-methyl-1H-pyrazol-4-yl)sulfonyl)phenyl)azetidin-3-yl)methyl)piperidin-4-yl)(phenyl)methyl)cyclopentyl) carbamate], the values for the IC50 in assay [1], in assay [2] (setting [3]) and in assay [2] (setting [4]) were 186 nM, more than 10 µM and 4.54 µM, respectively.
Regarding `O=S(=O)(c1ccc(N2CC(CN3CCC(C4(C5CCCC5)NCCc5ccccc54)CC3)C2)cc1)C1CCC1` (stereo not drawn) [compound 85, 1-(1-((1-(4-(cyclobutylsulfonyl)phenyl)azetidin-3-yl)methyl)piperidin-4-yl)-1-cyclopentyl-1,2,3,4-tetrahydroisoquinoline], the IC50 came to 36 nM in assay [1], 4.2 µM in assay [2] (setting [5]) and 1.6 µM in assay [2] (setting [6]).
In the same order, the values of `O=S(=O)(CC1CCCC1)c1ccc(N2CC(CN3CCC(C4(C5CCCC5)NCCc5ccccc54)CC3)C2)cc1` (stereo not drawn) [compound 91, 1-cyclopentyl-1-(1-((1-(4-((cyclopentylmethyl)sulfonyl)phenyl)azetidin-3-yl)methyl)piperidin-4-yl)-1,2,3,4-tetrahydroisoquinoline] are 42 nM, 1.7 ± 0.004 µM and 1.3 ± 0.3 µM.
For the molecule `CN1Cc2ccccc2C(C2CCCC2)(C2CCN(CCCOc3ccc(C#N)cc3)CC2)C1` (stereo not drawn) [compound 23, 4-(3-(4-(4-cyclopentyl-2-methyl-1,2,3,4-tetrahydroisoquinolin-4-yl)piperidin-1-yl)propoxy)benzonitrile], the IC50 is 54 nM in assay [1], 5 µM in assay [2] (setting [3]) and 1 ± 0.4 µM in assay [2] (setting [4]).
Take `CCN1Cc2ccccc2C(C2CCCC2)(C2CCN(CC3CN(c4ccc(S(=O)(=O)CC)cc4)C3)CC2)C1` (stereo not drawn) [compound 136, 4-cyclopentyl-2-ethyl-4-(1-((1-(4-(ethylsulfonyl)phenyl)azetidin-3-yl)methyl)piperidin-4-yl)-1,2,3,4-tetrahydroisoquinoline]: the IC50 in assay [1] came out at 9 nM; in assay [2] (setting [5]), 3.8 µM; in assay [2] (setting [6]), 1.2 µM.
`CNC(=O)O[C@H]1CCC[C@@H]1C(C#N)(c1ccccc1)C1CCN(CC2CN(c3ccc(S(=O)(=O)c4ccccc4)cc3)C2)CC1` (mixture of isomers) [compound 225, rac-(1S,2R)-2-(cyano(phenyl)(1-((1-(4-(phenylsulfonyl)phenyl)azetidin-3-yl)methyl)piperidin-4-yl)methyl)cyclopentyl methylcarbamate]: the IC50 came to 9 nM in assay [1], 0.82 µM in assay [2] (setting [3]) and 0.24 µM in assay [2] (setting [4]).
